This is an account of results in patent US12129275B2, “Neuroactive steroids, compositions, and uses thereof” (SAGE THERAPEUTICS, INC., priority 2011, dated 2024).

Experiment [1] concerns the target T1, NMDA receptor (GRIN1/GRIN2A subunits) (Homo sapiens, UniProt Q05586+Q12879).
T1 construct: expressed in transfected cells
Kind of experiment: NMDA potentiation, whole-cell patch-clamp in HEK cells. The format is cell-based. The settings on record: currents evoked by 30 μM NMDA and 5.0 μM Glycine, holding potential −80 mV; for NMDA 1a2A (%) Potentiation 0.1 uM: compound 0.1 uM; for NMDA 1a2A (%) Potentiation 1 uM: compound 1 uM.

The target in a further experiment is NMDA (NR1a/NR2A) (Homo sapiens, UniProt Q05586+Q12879). To be noted: reported, Madau et al. / Connick et al. 2009; cited from earlier work.
Sequence of NMDA (NR1a/NR2A) (Q12879 23-1464, other chains not shown): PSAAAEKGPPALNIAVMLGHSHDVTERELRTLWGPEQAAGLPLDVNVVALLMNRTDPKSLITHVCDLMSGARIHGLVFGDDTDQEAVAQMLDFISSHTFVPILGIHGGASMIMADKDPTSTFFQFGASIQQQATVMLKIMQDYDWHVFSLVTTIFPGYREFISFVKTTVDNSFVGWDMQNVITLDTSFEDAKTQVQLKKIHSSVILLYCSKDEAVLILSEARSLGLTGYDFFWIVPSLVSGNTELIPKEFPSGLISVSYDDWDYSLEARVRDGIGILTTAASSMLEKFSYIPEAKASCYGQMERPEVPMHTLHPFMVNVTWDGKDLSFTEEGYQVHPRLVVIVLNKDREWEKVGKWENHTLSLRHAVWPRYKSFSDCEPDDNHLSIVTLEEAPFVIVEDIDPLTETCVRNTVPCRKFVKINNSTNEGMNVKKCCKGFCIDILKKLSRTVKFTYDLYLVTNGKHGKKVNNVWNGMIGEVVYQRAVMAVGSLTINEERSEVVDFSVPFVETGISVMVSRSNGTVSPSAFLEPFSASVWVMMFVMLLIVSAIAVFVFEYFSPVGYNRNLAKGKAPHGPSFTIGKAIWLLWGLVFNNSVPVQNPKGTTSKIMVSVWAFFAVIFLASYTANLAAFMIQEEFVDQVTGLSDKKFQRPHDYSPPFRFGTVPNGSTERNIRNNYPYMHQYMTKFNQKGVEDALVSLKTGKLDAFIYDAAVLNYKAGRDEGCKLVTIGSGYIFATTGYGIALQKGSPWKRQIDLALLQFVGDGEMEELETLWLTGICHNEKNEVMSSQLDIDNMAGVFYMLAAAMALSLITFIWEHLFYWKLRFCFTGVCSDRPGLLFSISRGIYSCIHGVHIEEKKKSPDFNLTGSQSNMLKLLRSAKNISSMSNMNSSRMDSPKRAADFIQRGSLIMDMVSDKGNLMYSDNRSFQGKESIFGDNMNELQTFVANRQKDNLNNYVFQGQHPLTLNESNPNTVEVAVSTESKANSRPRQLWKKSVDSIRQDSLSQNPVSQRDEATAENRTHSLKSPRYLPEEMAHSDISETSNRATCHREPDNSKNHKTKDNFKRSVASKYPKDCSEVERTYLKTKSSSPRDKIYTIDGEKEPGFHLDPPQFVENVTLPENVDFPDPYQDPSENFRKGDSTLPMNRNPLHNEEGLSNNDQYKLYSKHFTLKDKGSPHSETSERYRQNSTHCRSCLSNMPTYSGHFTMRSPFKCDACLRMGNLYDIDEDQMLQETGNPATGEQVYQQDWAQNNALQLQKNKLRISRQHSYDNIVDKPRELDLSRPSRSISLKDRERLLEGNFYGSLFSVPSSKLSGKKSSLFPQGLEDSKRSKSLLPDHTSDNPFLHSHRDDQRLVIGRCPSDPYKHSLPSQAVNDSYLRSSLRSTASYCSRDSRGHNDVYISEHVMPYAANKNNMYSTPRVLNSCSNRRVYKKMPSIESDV
For another experiment, the system named is NMDA receptors. The settings on record: background statement; cited from earlier work.

Values joined by “and” are separate entries in the source; they are usually repeats but may differ in a detail not shown here. Equal values may be shown once.

T1 sequence (Q12879 23-1464, other chains not shown): as above

For `C[C@H](CCC(C)(C)O)[C@H]1CC[C@H]2[C@@H]3CC=C4C[C@@](C)(O)CC[C@]4(C)[C@H]3CC[C@]12C`, in experiment [1], the “NMDA 1a2A (%) Potentiation 0.1 uM” value worked out at 128% and the “NMDA 1a2A (%) Potentiation 1 uM” value came out at 348%.
On to `C[C@H](CCC(C)(C)O)[C@H]1CC[C@H]2[C@@H]3CC[C@@H]4C[C@@](O)(C(F)(F)F)CC[C@]4(C)[C@H]3CC[C@]12C`, for which, in experiment [1], the “NMDA 1a2A (%) Potentiation 0.1 uM” value was found to be 9% and the “NMDA 1a2A (%) Potentiation 1 uM” value is reported as 18%.
Take `C[C@H](CCC(C)(C)O)[C@H]1CC[C@H]2[C@@H]3CC[C@H]4C[C@@](C)(O)CC[C@]4(C)[C@H]3CC[C@]12C`: in experiment [1], the “NMDA 1a2A (%) Potentiation 0.1 uM” value is 87% and 70%; the “NMDA 1a2A (%) Potentiation 1 uM” value is 278% and 238%.
Regarding `CC[C@]1(O)CC[C@@]2(C)C(=CC[C@H]3[C@@H]4CC[C@H]([C@H](C)CCC(C)(C)O)[C@@]4(C)CC[C@@H]32)C1`, in experiment [1], the “NMDA 1a2A (%) Potentiation 0.1 uM” value is 181% and the “NMDA 1a2A (%) Potentiation 1 uM” value stood at 286%.
The corresponding values for `C[C@H](CCC(C)(C)O)[C@H]1CC[C@H]2[C@@H]3CC[C@H]4C[C@](O)(C(F)(F)F)CC[C@]4(C)[C@H]3CC[C@]12C` are 59% and 172%.
For the molecule `C[C@H](CCC(C)(C)O)[C@H]1CC[C@H]2[C@@H]3CC=C4C[C@](C)(O)CC[C@]4(C)[C@H]3CC[C@]12C`, in experiment [1], the “NMDA 1a2A (%) Potentiation 0.1 uM” value is 13% and the “NMDA 1a2A (%) Potentiation 1 uM” value is listed as 60%.
With `CC(O)CC[C@@H](C)[C@H]1CC[C@H]2[C@@H]3CC=C4C[C@@H](O)CC[C@]4(C)[C@H]3CC[C@]12C` (stereo partly shown), in experiment [1], the “NMDA 1a2A (%) Potentiation 0.1 uM” value worked out at 42% and the “NMDA 1a2A (%) Potentiation 1 uM” value came out at 98%.
As for `CC(C)[C@H](O)CC[C@@H](C)[C@H]1CC[C@H]2[C@@H]3CC=C4C[C@@H](O)CC[C@]4(C)[C@H]3CC[C@]12C`, in experiment [1], the “NMDA 1a2A (%) Potentiation 0.1 uM” value is 82% and the “NMDA 1a2A (%) Potentiation 1 uM” value stood at 137%.
With `C[C@H](CCCO)[C@H]1CC[C@H]2[C@@H]3CC=C4C[C@@H](O)CC[C@]4(C)[C@H]3CC[C@]12C`, in experiment [1], the “NMDA 1a2A (%) Potentiation 0.1 uM” value was determined as 39% and the “NMDA 1a2A (%) Potentiation 1 uM” value came to 127%.
For `C[C@H](CC(C)(C)O)[C@H]1CC[C@H]2[C@@H]3CC=C4C[C@@H](O)CC[C@]4(C)[C@H]3CC[C@]12C`, in experiment [1], the “NMDA 1a2A (%) Potentiation 0.1 uM” value is on record as −5% and the “NMDA 1a2A (%) Potentiation 1 uM” value is given as 27%.
Turning to `C[C@H](CCC1(O)CC1)[C@H]1CC[C@H]2[C@@H]3CC=C4C[C@@H](O)CC[C@]4(C)[C@H]3CC[C@]12C`, in experiment [1], the “NMDA 1a2A (%) Potentiation 0.1 uM” value is given as 74% and the “NMDA 1a2A (%) Potentiation 1 uM” value was determined as 171%.
Regarding `C[C@H](CCC(C)(C)O)[C@H]1CC[C@H]2[C@@H]3CC=C4C[C@@H](O)CC[C@@H]4[C@H]3CC[C@]12C`, in experiment [1], the “NMDA 1a2A (%) Potentiation 0.1 uM” value turned out to be 28% and the “NMDA 1a2A (%) Potentiation 1 uM” value was determined as 66%.
Turning to `C[C@H](CCC(C)(C)O)[C@H]1CC[C@H]2[C@@H]3CC[C@H]4C[C@@H](O)CC[C@@H]4[C@H]3CC[C@]12C`, in experiment [1], the “NMDA 1a2A (%) Potentiation 0.1 uM” value amounted to 19% and the “NMDA 1a2A (%) Potentiation 1 uM” value is given as 44%.
Turning to `CC(C)(O)CCO[C@H]1CCC2C3CC[C@H]4C[C@@](C)(O)CC[C@]4(C)C3CC[C@@]21C` (stereo partly shown), in experiment [1], the “NMDA 1a2A (%) Potentiation 0.1 uM” value was 6% and the “NMDA 1a2A (%) Potentiation 1 uM” value is 27%.
The matching figures for `C[C@H](CCC(C)(C)O)[C@H]1CC[C@H]2[C@@H]3CC[C@H]4C[C@](C)(O)CC[C@@H]4[C@H]3CC[C@]12C`: 21% and 52%.
With `C[C@H](CCC(C)(C)O)[C@H]1CC[C@H]2[C@@H]3CC[C@H]4C[C@](C)(O)CC[C@]4(C)[C@H]3CC[C@]12C`, in experiment [1], the “NMDA 1a2A (%) Potentiation 0.1 uM” value was 19% and the “NMDA 1a2A (%) Potentiation 1 uM” value is given as 30%.
Consider `CC(C)(O)COC[C@H]1CCC2C3CC=C4C[C@@](C)(O)CC[C@]4(C)C3CC[C@@]21C` (stereo partly shown), for which, in experiment [1], the “NMDA 1a2A (%) Potentiation 0.1 uM” value is −5% and the “NMDA 1a2A (%) Potentiation 1 uM” value is −14%.
Regarding `C[C@H](CCC(C)(C)O)[C@H]1CC[C@H]2[C@@H]3CC[C@H]4C[C@@H](O)CC[C@]4(C)[C@H]3CC[C@]12C`, in experiment [1], the “NMDA 1a2A (%) Potentiation 0.1 uM” value turned out to be 18% and the “NMDA 1a2A (%) Potentiation 1 uM” value amounted to 85%.
The corresponding values for `C[C@H](CCC(C)(C)O)[C@H]1CC[C@H]2[C@@H]3CC[C@H]4C[C@@](C)(O)CC[C@@H]4[C@H]3CC[C@]12C` are 25% and 114%.
Take `CC[C@@]1(O)CC[C@@]2(C)C(=CC[C@H]3[C@@H]4CC[C@H]([C@H](C)CCC(C)(C)O)[C@@]4(C)CC[C@@H]32)C1`: in experiment [1], the “NMDA 1a2A (%) Potentiation 0.1 uM” value is recorded as 23% and the “NMDA 1a2A (%) Potentiation 1 uM” value stood at 139%.
Consider `C[C@H](CCC(C)(C)O)[C@H]1CC[C@H]2[C@@H]3CC=C4C[C@@H](O)CC[C@]4(C)[C@H]3CC[C@]12C` [Org-1], for which, on NMDA (NR1a/NR2A), the “modulation of NMDA (NR1a/NR2A)” value is reported as “positive modulator” and the “selectivity NMDA over GABAA” value is reported as “selectively modulate NMDA over GABAA”.
As to `CNC(C)(C)CC[C@@H](C)[C@H]1CC[C@H]2[C@@H]3CC=C4C[C@@H](O)CC[C@]4(C)[C@H]3CC[C@]12C`, in experiment [1], the “NMDA 1a2A (%) Potentiation 0.1 uM” value was 25% and the “NMDA 1a2A (%) Potentiation 1 uM” value worked out at 19%.
For the molecule `CC(CCC(C)(C)O)[C@H]1CC[C@H]2[C@@H]3CC=C4C[C@@H](O)CC[C@]4(C)[C@H]3CC[C@]12C` (stereo partly shown), in experiment [1], the “NMDA 1a2A (%) Potentiation 0.1 uM” value is reported as 55% and the “NMDA 1a2A (%) Potentiation 1 uM” value turned out to be 197%.
Regarding `COC[C@@]1(O)CC[C@@]2(C)[C@@H](CC[C@@H]3[C@@H]2CC[C@]2(C)[C@@H]([C@H](C)CCC(C)(C)O)CC[C@@H]32)C1`, in experiment [1], the “NMDA 1a2A (%) Potentiation 0.1 uM” value was found to be 8% and the “NMDA 1a2A (%) Potentiation 1 uM” value was 25%.
As to `CC(C)(O)CCC[C@H]1CCC2C3CC[C@H]4C[C@@](C)(O)CC[C@]4(C)C3CC[C@@]21C` (stereo partly shown), in experiment [1], the “NMDA 1a2A (%) Potentiation 0.1 uM” value was 17% and the “NMDA 1a2A (%) Potentiation 1 uM” value came to 105%.
In the case of `C[C@H](CC(F)(F)CO)[C@H]1CC[C@H]2[C@@H]3CC=C4C[C@@H](O)CC[C@]4(C)[C@H]3CC[C@]12C`, in experiment [1], the “NMDA 1a2A (%) Potentiation 0.1 uM” value is recorded as 31% and the “NMDA 1a2A (%) Potentiation 1 uM” value is given as 95%.
On to `C[C@@H]([C@H]1CC[C@H]2[C@@H]3CC=C4C[C@@H](O)CC[C@]4(C)[C@H]3CC[C@]12C)C(C)(C)O`, for which, in experiment [1], the “NMDA 1a2A (%) Potentiation 0.1 uM” value was 4% and the “NMDA 1a2A (%) Potentiation 1 uM” value is 24%.
As to pregnenolone sulfate [PS], the “modulation of NMDA receptors” value in the experiment with NMDA receptors is “positively modulated”.
For the molecule `C[C@H](CCC(C)(C)N)[C@H]1CC[C@H]2[C@@H]3CC=C4C[C@@H](O)CC[C@]4(C)[C@H]3CC[C@]12C`, in experiment [1], the “NMDA 1a2A (%) Potentiation 0.1 uM” value is −8% and the “NMDA 1a2A (%) Potentiation 1 uM” value is −19%.
For `COC[C@]1(O)CC[C@@]2(C)[C@@H](CC[C@@H]3[C@@H]2CC[C@]2(C)[C@@H]([C@H](C)CCC(C)(C)O)CC[C@@H]32)C1`, in experiment [1], the “NMDA 1a2A (%) Potentiation 0.1 uM” value was found to be 14% and the “NMDA 1a2A (%) Potentiation 1 uM” value was 110%.
As for `C[C@H](CCC(C)(C)O)[C@H]1CC[C@H]2[C@@H]3CC[C@H]4C[C@](O)(C(F)(F)F)CC[C@@H]4[C@H]3CC[C@]12C`, in experiment [1], the “NMDA 1a2A (%) Potentiation 0.1 uM” value worked out at 14% and the “NMDA 1a2A (%) Potentiation 1 uM” value amounted to 85%.
